According to patent US20240216352A1 (priority 2022, published 2024):
Where “and” joins values, the source holds several entries; their conditions need not be identical. Equal values may be shown once.

Tested on: participants with PPF
Assay: Phase 2 study, PPF cohort: efficacy (ppFVC, FVC)
Format: in vivo, human
Settings: for Difference (S.E.) in rate of decline in FVC (% Predicted), 30 mg - placebo: 30 mg BID
Experimental: A total of 123 participants with PPF were randomized. Participants (age ≥21 years) were randomized (1:1:1) to receive 30 mg or 60 mg Compound A or PBO twice daily for 26 weeks. […] Immunosuppressive medications (mycophenolate mofetil, mycophenolic acid, azathioprine and/or tacrolimus) were permitted only if dosing is stable for ≥6 months prior to screening. If receiving antifibrotic agents pirfenidone or nintedanib, patients had to receive a stable dosage for ≥3 months prior to screening and during the screening period; if not receiving pirfenidone or nintedanib, patients had to be naive to both drugs or not have received either 4 weeks prior to Day 1. A total of 47 (38.2%) subjects were receiving antifibrotic treatment (with or without immunosuppression therapy). Of those subjects, 34 were being treated with nintedanib and 13 with pirfenidone. Participants were stratified by usual interstitial pneumonia (UIP) pattern (presence versus absence) and background therapy (antifibrotics+/−ILD-targeted immunosuppression versus ILD-targeted immunosuppression alone versus none). UIP pattern was present in 52% of subjects and unclassifiable ILD was the most common disease categorization.
The study was not powered to detect statistical significance (no formal testing). No target effect size was defined in the study design. There were two estimand approaches for analysis: • Treatment Policy: Effect of treatment with dose reduction as part of treatment regimen.
While-On Treatment: Effect of treatment without dose reduction.
The main efficacy endpoint, rate of FVC decline (in % of predicted) from baseline to wk-26 in the PPF cohort, was estimated using a linear mixed-effects model utilizing all FVC timepoints. It was analyzed under a primary estimand (utilizing all data, treatment policy strategy), and under supplementary estimand (utilizing all data up to the point of dose reduction, while-on-treatment strategy). Analysis was performed in the overall population as well as in sub-groups by 1) background anti-fibrotic treatment or not 2) UIP radiographic pattern (presence or not). The mean baseline ppFVC was 66.7% for the PPF cohort.

Compound: CCCN(C)C(=O)OCc1c(-c2ccc(O[C@H]3CCC[C@H](C(=O)O)C3)c(C)n2)nnn1C [Compound A, (1S,3S)-3-((2-methyl-6-(1-methyl-5-(((methyl(propyl)carbamoyl)-oxy)methyl)-1H-1,2,3-triazol-4-yl)pyridin-3-yl)oxy)cyclohexane-1-carboxylic acid]
- Difference (S.E.) in rate of decline in FVC (% Predicted), 30 mg - placebo (UIP absent, primary estimand (treatment policy)): 2.25 (2.13) % Predicted
- Difference (S.E.) in rate of decline in FVC (% Predicted), 30 mg - placebo (UIP absent, supplementary estimand (while on treatment)): 2.26 (2.28) % Predicted
- Difference (S.E.) in rate of decline in FVC (% Predicted), 30 mg - placebo (UIP present, primary estimand (treatment policy)): 0.88 (1.6) % Predicted
- Difference (S.E.) in rate of decline in FVC (% Predicted), 30 mg - placebo (UIP present, supplementary estimand (while on treatment)): 1.28 (1.61) % Predicted
- Difference (S.E.) in rate of decline in FVC (% Predicted), 30 mg - placebo (not receiving antifibrotic treatment, primary estimand (treatment policy)): 1.28 (1.63) % Predicted
- Difference (S.E.) in rate of decline in FVC (% Predicted), 30 mg - placebo (not receiving antifibrotic treatment, supplementary estimand (while on treatment)): 1.34 (1.66) % Predicted
- Difference (S.E.) in rate of decline in FVC (% Predicted), 30 mg - placebo (overall, primary estimand (treatment policy)): 1.57 (1.29) % Predicted
- Difference (S.E.) in rate of decline in FVC (% Predicted), 30 mg - placebo (overall, supplementary estimand (while on treatment)): 1.78 (1.34) % Predicted
- Difference (S.E.) in rate of decline in FVC (% Predicted), 30 mg - placebo (receiving antifibrotic treatment, primary estimand (treatment policy)): 1.99 (2.12) % Predicted
- Difference (S.E.) in rate of decline in FVC (% Predicted), 30 mg - placebo (receiving antifibrotic treatment, supplementary estimand (while on treatment)): 2.58 (2.25) % Predicted
- Dose response of efficacy (ppFVC decline) (30 mg and 60 mg BID): Clear dose response
- Difference (S.E.) in rate of decline in FVC (% Predicted), 60 mg - placebo (60 mg BID, UIP absent, primary estimand (treatment policy)): 3.81 (2.02) % Predicted
- Difference (S.E.) in rate of decline in FVC (% Predicted), 60 mg - placebo (60 mg BID, UIP absent, supplementary estimand (while on treatment)): 3.80 % Predicted and 3.8 (2.17) % Predicted
- Difference (S.E.) in rate of decline in FVC (% Predicted), 60 mg - placebo (60 mg BID, UIP present, primary estimand (treatment policy)): 2.49 (1.61) % Predicted
- Difference (S.E.) in rate of decline in FVC (% Predicted), 60 mg - placebo (60 mg BID, UIP present, supplementary estimand (while on treatment)): 2.12 % Predicted and 2.12 (1.62) % Predicted
- Difference (S.E.) in rate of decline in FVC (% Predicted), 60 mg - placebo (60 mg BID, not receiving antifibrotic treatment, primary estimand (treatment policy)): 2.85 (1.6) % Predicted
- Difference (S.E.) in rate of decline in FVC (% Predicted), 60 mg - placebo (60 mg BID, not receiving antifibrotic treatment, supplementary estimand (while on treatment)): 2.61 % Predicted and 2.61 (1.63) % Predicted
- Difference (S.E.) in rate of decline in FVC (% Predicted), 60 mg - placebo (60 mg BID, overall, primary estimand (treatment policy)): 3.2 % Predicted and 3.15 (1.27) % Predicted
- Difference (S.E.) in rate of decline in FVC (% Predicted), 60 mg - placebo (60 mg BID, overall, supplementary estimand (while on treatment)): 2.9 % Predicted and 2.94 % Predicted and 2.94 (1.32) % Predicted
- Difference (S.E.) in rate of decline in FVC (% Predicted), 60 mg - placebo (60 mg BID, receiving antifibrotic treatment, primary estimand (treatment policy)): 3.74 (2.1) % Predicted
- Difference (S.E.) in rate of decline in FVC (% Predicted), 60 mg - placebo (60 mg BID, receiving antifibrotic treatment, supplementary estimand (while on treatment)): 3.28 % Predicted and 3.28 (2.21) % Predicted
- Adjusted mean treatment difference in absolute change in FVC vs placebo (60 mg BID, week 26): 87.4 mL
- Consistency of efficacy across sub-groups (irrespective of background antifibrotics or of UIP pattern): Efficacy consistent in all sub-groups
